Laboratory results taken from patent US9987327B2, “Methods for treating myocardial infarction comprising administering sonic hedgehog” (INSERM (INSTITUT NATIONAL DE LA SANTE ET DE EA RECHERCHE …, priority 2013, dated 2018).
“Also recorded” adds a separate entry of the source.

How the values were obtained:
[1] = tested on: rat ventricular cardiomyocytes; assay: Action potential recording, whole-cell patch clamp; type: cell-based; details: for effect on APD reduction induced by N-Shh: glibenclamide 1 μM acute, L-NNA, ODQ
Procedure: Whole-cell patch-clamp experiments were performed at room temperature (22-24° C.) with an Axopatch 200B (Axon instrument, Burlingham, Calif., USA). Patch pipettes had resistance of 2 MΩ. Currents were normalized to the cell membrane capacitance (pA/pF). Series resistances were compensated before recordings.
To record APs, pipettes solution contained (in mM): KCl (130), HEPES (25), ATP(Mg) (3), GTP(Na) (0.4), EGTA (0.5); pH 7.2 (KOH). Bathing solution contained (in mmol/L): NaCl (135), MgCl2 (1), KCl (4), Glucose (11), HEPES (2), CaCl2 (1.8); pH 7.4 (NaOH). APs were elicited by 0.2 ms current injection of supra-threshold intensity. During experiments, cells were stimulated by trains of 30 stimuli at 0.5 Hz.

[2] = tested on: rat ventricular cardiomyocytes; assay: Nitric oxide (NO) measurement, DAF fluorescence in cardiomyocytes; type: cell-based
[3] = tested on: rat ventricular cardiomyocytes; assay: Ca2+ transient and cell shortening (sarcomere length, indo-1) under field stimulation; type: cell-based; details: co-incubation; for effect on reduction of cell shortening and Ca2+ transient amplitude induced by N-Shh: Ccl 30 μM, LY 25 μM, L-NNA 100 μM
[4] = target: T1, ATP-dependent potassium current (IKATP) (Rattus norvegicus, UniProt P70673+Q63563); assay: Glibenclamide-sensitive K+ current (IKATP), voltage clamp; type: cell-based
T1 construct: endogenous in cells; host or cells: isolated adult rat ventricular cardiomyocytes
T1 sequence (P70673 whole entry): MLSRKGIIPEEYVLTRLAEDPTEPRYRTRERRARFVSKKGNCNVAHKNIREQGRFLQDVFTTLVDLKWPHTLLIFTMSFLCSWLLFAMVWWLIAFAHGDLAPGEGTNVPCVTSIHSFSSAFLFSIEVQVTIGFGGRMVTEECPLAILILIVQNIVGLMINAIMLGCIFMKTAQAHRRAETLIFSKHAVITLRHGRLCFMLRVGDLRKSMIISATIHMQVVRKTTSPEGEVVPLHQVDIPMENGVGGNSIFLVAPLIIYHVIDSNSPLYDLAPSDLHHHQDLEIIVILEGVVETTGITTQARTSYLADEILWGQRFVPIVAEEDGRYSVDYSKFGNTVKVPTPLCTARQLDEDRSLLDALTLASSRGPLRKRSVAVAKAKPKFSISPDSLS
T1 sequence (Q63563 whole entry): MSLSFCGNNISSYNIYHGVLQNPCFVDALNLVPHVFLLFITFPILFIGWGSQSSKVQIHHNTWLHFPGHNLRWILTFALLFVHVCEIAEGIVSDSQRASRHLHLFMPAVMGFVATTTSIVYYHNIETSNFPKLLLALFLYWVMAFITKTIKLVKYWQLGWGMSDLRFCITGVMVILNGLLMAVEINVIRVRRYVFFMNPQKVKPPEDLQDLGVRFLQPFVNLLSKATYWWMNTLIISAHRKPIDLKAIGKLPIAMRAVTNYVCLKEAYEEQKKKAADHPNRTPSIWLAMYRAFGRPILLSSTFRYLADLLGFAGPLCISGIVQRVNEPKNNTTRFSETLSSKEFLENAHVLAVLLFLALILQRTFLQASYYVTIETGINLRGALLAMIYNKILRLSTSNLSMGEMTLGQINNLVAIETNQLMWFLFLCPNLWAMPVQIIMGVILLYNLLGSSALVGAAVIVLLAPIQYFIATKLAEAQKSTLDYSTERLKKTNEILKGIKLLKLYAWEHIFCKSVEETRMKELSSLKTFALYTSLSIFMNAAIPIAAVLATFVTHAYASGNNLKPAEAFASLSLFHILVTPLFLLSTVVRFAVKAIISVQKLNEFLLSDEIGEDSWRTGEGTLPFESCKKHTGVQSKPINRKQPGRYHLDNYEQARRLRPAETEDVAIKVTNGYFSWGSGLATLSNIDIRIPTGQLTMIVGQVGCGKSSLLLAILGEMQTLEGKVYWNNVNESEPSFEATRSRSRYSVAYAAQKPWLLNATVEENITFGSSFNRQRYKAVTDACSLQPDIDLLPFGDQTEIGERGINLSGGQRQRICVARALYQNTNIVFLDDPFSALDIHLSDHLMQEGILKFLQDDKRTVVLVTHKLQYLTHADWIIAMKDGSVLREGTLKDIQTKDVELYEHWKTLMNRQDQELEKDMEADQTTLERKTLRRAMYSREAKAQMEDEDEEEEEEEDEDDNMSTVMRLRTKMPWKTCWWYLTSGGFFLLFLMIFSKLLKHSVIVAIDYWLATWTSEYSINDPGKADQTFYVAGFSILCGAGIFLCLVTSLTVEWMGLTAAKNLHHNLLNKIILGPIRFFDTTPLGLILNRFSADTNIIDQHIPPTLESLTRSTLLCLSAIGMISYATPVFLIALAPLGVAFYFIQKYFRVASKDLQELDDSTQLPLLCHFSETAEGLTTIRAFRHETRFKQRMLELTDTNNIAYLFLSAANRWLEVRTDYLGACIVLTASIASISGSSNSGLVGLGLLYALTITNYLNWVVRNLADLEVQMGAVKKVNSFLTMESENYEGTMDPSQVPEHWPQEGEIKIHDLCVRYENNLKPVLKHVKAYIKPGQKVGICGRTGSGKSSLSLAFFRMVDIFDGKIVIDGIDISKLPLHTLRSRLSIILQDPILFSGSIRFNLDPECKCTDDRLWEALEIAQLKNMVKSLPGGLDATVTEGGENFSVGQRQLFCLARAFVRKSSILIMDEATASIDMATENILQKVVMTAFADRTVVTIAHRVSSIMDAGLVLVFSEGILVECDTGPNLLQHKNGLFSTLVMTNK

[5] = tested on: rat model of ischemia reperfusion; assay: ECG (QTc, ventricular arrhythmias) after 30 min ischemia and 24 h reperfusion; type: in vivo
Procedure: (§1) Rats were implanted with DSI PhysioTel™ Transmitter (CTA-F40, Data Sciences International, Saint-Paul, Minn., USA), fifteen days before starting experiments. After recovery, ECGs were recorded by using a signal transmitter-receiver (RPC-1; DSI) connected to a data acquisition system (IOX2; EMKA Technologies). The data were collected continuously at a sampling rate of 1,000 Hz. Thus, ECGs were recorded in rats before and 6 hours after i.v. injection of Shh, Shh and hexamethonium, MPs, Shh and cyclopamine, Shh and glibenclamide. ECGs were also monitored 24 h before ischemia, during ischemia and 24 h after reperfusion. Continuous digital recordings were analyzed offline by using the software ECG-auto (ver 1.5.12.22, EMKA Technologies). ECG signals were digitally filtered between 0.1 and 1,000 Hz. The heart rate and QT interval were measured. The QT interval was defined as the time between the first deviation from an isoelectric PR interval until the return of the ventricular repolarisation to the isoelectric TP baseline from lead II ECGs. […]
The rats were subjected to 30 min ischemia followed by reperfusion. The reperfusion injuries were histologically evaluated at 24 h after reperfusion by measuring the infarcted area relative to the area at risk (FIG. 9). […]

[6] = tested on: rat model of ischemia reperfusion; assay: Infarct size (infarcted area relative to area at risk) 24 h after reperfusion; type: in vivo; details: cyclopamine with N-Shh
Procedure: The rats were subjected to 30 min ischemia followed by reperfusion. The reperfusion injuries were histologically evaluated at 24 h after reperfusion by measuring the infarcted area relative to the area at risk (FIG. 9). Fifteen minutes prior to reperfusion, one group of rats received intravenous (iv) injection of the recombinant Shh homolog ligand (N-ShhH, 25 μg·kg^−1), the second group received N-Shh and the Shh receptor (patch/smoothened) antagonist cyclopamine (N-Shh+Ccl, 30 μmol/L) and the third one the vehicle (control). […] Considering that the cardio-protective effects are observed within a short time after reperfusion (i.e. <24 h), it is unlikely that they are mediated by a neoangiogenesis and/or mobilization of progenitor cells (Kusano K F, Pola R, Murayama T, Curry C, Kawamoto A, Iwakura A, Shintani S, Ii M, Asai J, Tkebuchava T, Thorne T, Takenaka H, Aikawa R, Goukassian D, von Samson P, Hamada H, Yoon Y S, Silver M, Eaton E, Ma H, Heyd L, Kearney M, Munger W, Porter J A, Kishore R and Losordo D W. Sonic hedgehog myocardial gene therapy: tissue repair through transient reconstitution of embryonic signaling. Nat Med. 2005; 11:1197-204. […]

[7] = tested on: rat model of ischemia reperfusion; assay: Left ventricular fibrosis, Masson trichrome histology 24 h after reperfusion; type: in vivo
Procedure: Thin sections (5 μm) were prepared from the rat left ventricles and stained with Haematoxylin-Eosin (HE) and Masson trichrome (MT) for light microscopy (10×). The thickening of the myocardium was estimated on the HE-stained heart sections, and the presence of collagen was analyzed on the MT-stained ventricle sections.

[8] = tested on: rats; assay: Telemetric ECG, QTc interval before and 6 hours after i.v. injection; type: in vivo, rat; details: given with Shh
Procedure: as §1, with “ECGs. The QT interval is dependent on the heart rate, therefore, QT interval should be corrected to take into account potential changes in RR interval. The QT correction was performed according to the Bazett's: formula:” for “ECGs.”
where QTB is the QT interval corrected for heart rate, and RR is the interval from the onset of one QRS complex to the onset of the next QRS complex.

With `N=C(NCCC[C@H](N)C(=O)O)N[N+](=O)[O-]` [L-NNA, N^ω-nitro-L-arginine] the “effect on APD reduction induced by N-Shh” value [1] was “blunted”, the “effect on N-Shh-induced NO production” value ([2]; co-incubation with N-Shh, L-NNA 100 μM, LY 25 μM) was “prevented” and the “effect on reduction of cell shortening and Ca2+ transient amplitude induced by N-Shh” value [3] was “fully abolished”. The “effect on IKATP elicited by N-Shh” value [4] was “blocked”.

With `O=c1onc2cnc3ccccc3n12` [ODQ, 1H-[1.2.4]oxadiazolo[4.3-a]quinoxalin-1-one] the “effect on APD reduction induced by N-Shh” value [1] was “blunted” and the “effect on IKATP elicited by N-Shh” value [4] was “blocked”.

In the case of `CC1=C2C[C@H]3[C@@H](CC=C4C[C@@H](O)CC[C@@]43C)[C@@H]2CC[C@]12O[C@@H]1C[C@H](C)CN[C@H]1[C@H]2C` [cyclopamine], the “effect on N-Shh prevention of QTc enlargement” value ([5]; cyclopamine injected in addition to N-Shh) is reported as “No beneficial effect; also recorded: abolished”, the “effect on Shh reduction of ventricular arrhythmic events” value ([5]; cyclopamine with N-Shh) is reported as “abolished” and the “effect on cardioprotective (infarct-reducing) effect of N-Shh” value [6] is reported as “fully abolished; also recorded: fully prevented”. For the same compound, the “NO production (DAF fluorescence) vs control” value ([2]; cardiomyocytes incubated 4 h) was “no effect”, the “effect on NO production induced by Shh-harboring MPs” value ([2]; pre-/co-incubation, cyclopamine 30 μM) was “prevented” and the “effect on reduction of cell shortening and Ca2+ transient induced by shed membrane MPs” value ([3]; cyclopamine 30 μM) was “blocked”. The “effect on reduction of cell shortening and Ca2+ transient amplitude induced by N-Shh” value [3] was “fully abolished”, the “effect on Shh prevention of fibrosis” value [7] was “abolished” and the “effect on the reduction in QTc interval after Shh injection” value (shortened to “effect on the reduction in QTc interval”) [8] was “prevented”.

With `COc1ccc(Cl)cc1C(=O)NCCc1ccc(S(=O)(=O)NC(=O)NC2CCCCC2)cc1` [glibenclamide] the “effect on APD in the absence of N-Shh treatment” value ([1]; acute application) was “no effect”, the “effect on APD reduction induced by N-Shh” value [1] was “prevented” and the “effect on the reduction in QTc interval” value [8] was “prevented”.

`C[N+](C)(C)CCCCCC[N+](C)(C)C` [hexamethonium] was tested, and the “effect on the reduction in QTc interval” value [8] was “identical”.
